Measured values as given in patent US20180250295A1, “Treatment of Motor and Movement Disorder Side Effects Associated with Parkinson's Disease Treatments” (Psychogenics, Inc., priority 2012, published 2018).

Key:
5-HT1d receptor = conditions: compared with serotonin; cited from earlier work
5-HT1b receptor = 5-HT1b receptor (Homo sapiens, UniProt P28222); conditions: relative to 5-HT1a; cited from earlier work
[1] = test system: Parkinson's patients with L-DOPA induced dyskinesias; experiment: Levodopa challenge-dose study of oral eltoprazine, dyskinesia ratings (CDRS, Rush DRS); type: in vivo, human; conditions: for levodopa-induced dyskinesia (LID) measured by the CDRS scale: compared to placebo
Excerpt: (§1) This example describes a multicenter, randomized, double-blind, placebo-controlled, dose finding study of oral eltoprazine in Parkinson's patients with L-DOPA induced dyskinesias, in a levodopa challenge-dose setting in Parkinson's Disease. A total of 22 patients participated in the study, out of which 18 patients fulfilled the protocol in terms of eligibility, interventions, and outcome assessment.
This study also assessed the safety and tolerability of eltoprazine in adults with Parkinson's Disease using the following measures: a) population mean values for the change in dyskinesia ratings between the placebo and screening baseline values and any of the eltoprazine dosages used, calculated as the peak-effect on CDRS of any study medication; b) population mean values for the change in dyskinesia ratings between the placebo and screening baseline values and any of the eltoprazine dosages used, calculated as the AuC on Rush DRS of any study medication; c) any changes in the UPDRS-III total score; d) any change in the diary data set, between the baseline and placebo and any of the three study medication tests; e) any deterioration of the HADS scores after study medication compared with placebo; f) any development of depression over the course of the study period, determined by the Montgomery Asberg Depression Rating Scale (MADRS) and clinical judgment; g) comparison between the effects on Rush Dyskinesia Rating Scale (DRS) and Clinical Dyskinesia Rating Scale (CDRS) Area under the Curve (AuC) and peak of dose effects for the three study medication dosages.
During the first visit, patients underwent screening for inclusion/exclusion criteria and safety assessments. Symptoms of parkinsonism, depression, and anxiety were assessed, and screening for significant L-DOPA dyskinesias were conducted using a challenge dose (150%) of L-DOPA. Subjects who were taking a prohibited medication were required to complete a washout period of appropriate length, as determined by the investigator. […]

dopamine receptors = conditions: cited from earlier work
5-HT1a receptor = biological target: T1, 5-HT1a receptor (Homo sapiens, UniProt P08908); conditions: relative to 5-HT1b; cited from earlier work
T1 sequence (P08908 1-422): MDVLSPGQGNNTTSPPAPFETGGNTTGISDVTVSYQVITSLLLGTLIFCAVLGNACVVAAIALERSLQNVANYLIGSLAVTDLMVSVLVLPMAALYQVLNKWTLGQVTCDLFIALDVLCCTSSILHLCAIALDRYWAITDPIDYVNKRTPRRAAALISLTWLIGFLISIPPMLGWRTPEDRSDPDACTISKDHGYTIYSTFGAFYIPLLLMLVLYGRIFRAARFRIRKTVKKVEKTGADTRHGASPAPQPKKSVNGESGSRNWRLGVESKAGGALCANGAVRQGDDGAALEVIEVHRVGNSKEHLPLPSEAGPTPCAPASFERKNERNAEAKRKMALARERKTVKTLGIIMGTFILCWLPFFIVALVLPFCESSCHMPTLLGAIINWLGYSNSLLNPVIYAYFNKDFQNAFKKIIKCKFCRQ

5-HT1 = conditions: with respect to all receptors other than 5-HT1; cited from earlier work
[2] = test system: Parkinson's patients with L-DOPA induced dyskinesias; experiment: Safety and tolerability of eltoprazine in the levodopa challenge-dose study; type: in vivo, human; conditions: single oral doses of 2.5 mg, 5 mg, 7.5 mg
Excerpt: as §1, with “assessment. […]” for “assessment.”

[3] = test system: Parkinson's patients with L-DOPA induced dyskinesias; experiment: Levodopa challenge-dose study, UPDRS-III rating of parkinsonian symptoms (L-DOPA efficacy); type: in vivo, human
Excerpt: as §1, with “assessment. […]” for “assessment.”
During each of five visits, and after a two-hour fast, each patient received a challenge dosage (150%—up to a maximum of 250 mg) of levodopa. […] The patients were periodically recorded for 180 minutes after treatment, and the videos were evaluated in a blinded manner. […]
Filming occurred 30 minutes prior to, and every 30 minutes up to 180 minutes after a challenge test of L-DOPA and study medication. […] Video taped records of each sequence were assessed by separate individual qualified raters at both of the two clinical centers.
Analyses were done on both the intention-to-treat (ITT) and per protocol (PP) population, if applicable. The change between test sessions of the highest observed Unified Parkinson's Disease Rating Scale-III (UPDRS) within each session will be calculated between the randomised placebo test session and each active test session and will be analysed with Wilcoxon Signed Rank test on the ITT population.

Chain of 5-HT1b receptor (P28222 whole entry): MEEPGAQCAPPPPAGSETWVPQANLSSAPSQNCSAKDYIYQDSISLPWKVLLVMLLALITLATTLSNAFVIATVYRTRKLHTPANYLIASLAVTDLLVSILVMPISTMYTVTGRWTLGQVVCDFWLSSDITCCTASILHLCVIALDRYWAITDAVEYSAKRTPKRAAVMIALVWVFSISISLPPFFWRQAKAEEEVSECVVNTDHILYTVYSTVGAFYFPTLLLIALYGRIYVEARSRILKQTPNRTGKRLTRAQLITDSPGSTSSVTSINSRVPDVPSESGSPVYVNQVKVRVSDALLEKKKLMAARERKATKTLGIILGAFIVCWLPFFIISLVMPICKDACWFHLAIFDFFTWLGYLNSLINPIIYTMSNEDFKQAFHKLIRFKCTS

Compound: c1cc2c(c(N3CCNCC3)c1)OCCO2 [eltoprazine, 1-(2,3-dihydro-1,4-benzodioxanyl-5-yl) piperazine]
- affinity for the 5-HT1d receptor (5-HT1d receptor): lower affinity for the 5-HT1d receptor
- agonism and affinity at the 5-HT1b receptor (5-HT1b receptor): mixed 5-HT1a/5-HT1b receptor agonist with roughly equipotent affinity
- LID as measured by the Rush Scale AUC ([1]; 5 mg single oral dose): reduced LID in PD patients statistically significantly
- levodopa-induced dyskinesia (LID) measured by the CDRS scale ([1]; 5 mg single oral dose, p=0.0007, L-DOPA challenge dose 150%): statistically significantly reduced LID
- levodopa-induced dyskinesia (LID) measured by the CDRS scale ([1]; 7.5 mg single oral dose, p=0.0467, L-DOPA challenge dose 150%): statistically significantly reduced LID
- affinity for dopamine receptors (dopamine receptors): no relevant affinity for dopamine receptors
- agonism and affinity at the 5-HT1a receptor (5-HT1a receptor): mixed 5-HT1a/5-HT1b receptor agonist with roughly equipotent affinity
- binding selectivity (5-HT1): selective 5-HT1 ligand
- serious adverse events [2]: no serious adverse events
- tolerability [2]: well tolerated
- L-DOPA efficacy as measured by the UPDRS score ([3]; 5 mg and 7.5 mg doses): did not affect L-DOPA efficacy
- change in UPDRS-III of parkinsonian symptoms after eltoprazine administration ([3]; FIG. 2): no significant change
